Results on four compounds are retold here after EP4745135A1 (Gluetacs Therapeutics (Shanghai) Co., Ltd., priority 2023, dated 2025).

One experiment addresses T1, CK1α (Homo sapiens, UniProt P48729+Q96SW2).
T1 construct: effects of the compounds of the present disclosure on the expression of target proteins in cells; endogenous in cells; host or cells: human PBMCs (Milecell Biotechnologies)
Briefly: Western blot, degradation of substrate protein in hPBMCs. The class given is cell-based. To be noted: Western blot, 24 hours of compound treatment, compounds tested at 50 nM and 500 nM (concentration for the table not stated).

In another experiment the target is T2, IKZF1 (Homo sapiens, UniProt Q13422+Q96SW2).
T2 construct: effects of the compounds of the present disclosure on the expression of target proteins in cells; endogenous in cells; host or cells: human PBMCs (Milecell Biotechnologies)
The experiment is described as above. The class given is cell-based. The settings on record: Western blot, 24 hours of compound treatment, compounds tested at 50 nM and 500 nM (concentration for the table not stated). In general terms: Immunoblotting shows a protein as a band on a membrane.

Another experiment addresses T3, IKZF2 (Homo sapiens, UniProt Q96SW2+Q9UKS7).
T3 construct: effects of the compounds of the present disclosure on the expression of target proteins in cells; endogenous in cells; host or cells: human PBMCs (Milecell Biotechnologies)
The experiment is described as above. Format: cell-based. To be noted: Western blot, 24 hours of compound treatment, compounds tested at 50 nM and 500 nM (concentration for the table not stated).

For a further experiment, the target named is T4, IKZF3 (Homo sapiens, UniProt Q96SW2+Q9UKT9).
T4 construct: effects of the compounds of the present disclosure on the expression of target proteins in cells; endogenous in cells; host or cells: human PBMCs (Milecell Biotechnologies)
The description is as above. To be noted: Western blot, 24 hours of compound treatment, compounds tested at 50 nM and 500 nM (concentration for the table not stated). The class given is cell-based.

The target in the next experiment is T5, WEE1 (Homo sapiens, UniProt P30291+Q96SW2).
T5 construct: effects of the compounds of the present disclosure on the expression of target proteins in cells; endogenous in cells; host or cells: human PBMCs (Milecell Biotechnologies)
The description is as above. The class given is cell-based. The settings on record: Western blot, 24 hours of compound treatment, compounds tested at 50 nM and 500 nM (concentration for the table not stated).

The next experiment concerns GSPT1. Described as above. The class given is cell-based, Human. The settings on record: Western blot, 24 hours of compound treatment, compounds tested at 50 nM and 500 nM (concentration for the table not stated).
Experiment [1] addresses T6, human Cereblon WT GST-tagged protein (Homo sapiens, UniProt Q96SW2).
T6 construct: purchased CISBIO 64BDCRBNPEH
Briefly: CRBN-binding affinity, HTRF (CEREBLON BINDING kit). To be noted: for inhibition at 0.5 µM: read-out: Inhibition Rate at 0.5 µM (%); for inhibition at 2 µM: read-out: Inhibition Rate at 2 µM (%). A general note: TR-FRET usually uses a lanthanide donor and a delayed reading to cut background.

T3 sequence (Q9UKS7 whole entry): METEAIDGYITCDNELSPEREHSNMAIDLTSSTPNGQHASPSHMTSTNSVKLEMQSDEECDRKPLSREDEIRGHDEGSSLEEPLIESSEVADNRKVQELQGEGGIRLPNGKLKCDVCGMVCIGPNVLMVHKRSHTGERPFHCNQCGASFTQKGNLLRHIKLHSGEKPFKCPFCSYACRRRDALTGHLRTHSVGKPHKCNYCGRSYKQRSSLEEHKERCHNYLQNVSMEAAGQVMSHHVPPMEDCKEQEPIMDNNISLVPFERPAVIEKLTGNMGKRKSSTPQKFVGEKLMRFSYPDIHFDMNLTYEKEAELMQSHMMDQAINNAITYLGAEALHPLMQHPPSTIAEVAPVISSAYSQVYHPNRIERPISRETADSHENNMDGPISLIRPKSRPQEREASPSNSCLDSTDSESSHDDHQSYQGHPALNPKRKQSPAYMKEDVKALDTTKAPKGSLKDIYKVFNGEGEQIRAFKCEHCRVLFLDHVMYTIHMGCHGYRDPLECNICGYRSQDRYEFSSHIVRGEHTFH
T3 sequence (Q96SW2 whole entry): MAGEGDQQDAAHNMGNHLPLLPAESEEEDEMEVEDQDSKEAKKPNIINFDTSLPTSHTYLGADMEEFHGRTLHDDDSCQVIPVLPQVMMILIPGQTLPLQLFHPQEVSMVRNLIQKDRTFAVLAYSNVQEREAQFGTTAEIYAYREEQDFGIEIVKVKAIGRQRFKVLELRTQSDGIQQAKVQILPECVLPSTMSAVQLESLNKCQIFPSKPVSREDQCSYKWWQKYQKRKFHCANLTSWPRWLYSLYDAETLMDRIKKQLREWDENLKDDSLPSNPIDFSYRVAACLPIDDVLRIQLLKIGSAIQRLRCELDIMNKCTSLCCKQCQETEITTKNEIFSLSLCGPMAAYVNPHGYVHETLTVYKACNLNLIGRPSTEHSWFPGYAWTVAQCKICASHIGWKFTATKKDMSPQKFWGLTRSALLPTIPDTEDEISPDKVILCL
T3 sequence (Q16531 whole entry partner): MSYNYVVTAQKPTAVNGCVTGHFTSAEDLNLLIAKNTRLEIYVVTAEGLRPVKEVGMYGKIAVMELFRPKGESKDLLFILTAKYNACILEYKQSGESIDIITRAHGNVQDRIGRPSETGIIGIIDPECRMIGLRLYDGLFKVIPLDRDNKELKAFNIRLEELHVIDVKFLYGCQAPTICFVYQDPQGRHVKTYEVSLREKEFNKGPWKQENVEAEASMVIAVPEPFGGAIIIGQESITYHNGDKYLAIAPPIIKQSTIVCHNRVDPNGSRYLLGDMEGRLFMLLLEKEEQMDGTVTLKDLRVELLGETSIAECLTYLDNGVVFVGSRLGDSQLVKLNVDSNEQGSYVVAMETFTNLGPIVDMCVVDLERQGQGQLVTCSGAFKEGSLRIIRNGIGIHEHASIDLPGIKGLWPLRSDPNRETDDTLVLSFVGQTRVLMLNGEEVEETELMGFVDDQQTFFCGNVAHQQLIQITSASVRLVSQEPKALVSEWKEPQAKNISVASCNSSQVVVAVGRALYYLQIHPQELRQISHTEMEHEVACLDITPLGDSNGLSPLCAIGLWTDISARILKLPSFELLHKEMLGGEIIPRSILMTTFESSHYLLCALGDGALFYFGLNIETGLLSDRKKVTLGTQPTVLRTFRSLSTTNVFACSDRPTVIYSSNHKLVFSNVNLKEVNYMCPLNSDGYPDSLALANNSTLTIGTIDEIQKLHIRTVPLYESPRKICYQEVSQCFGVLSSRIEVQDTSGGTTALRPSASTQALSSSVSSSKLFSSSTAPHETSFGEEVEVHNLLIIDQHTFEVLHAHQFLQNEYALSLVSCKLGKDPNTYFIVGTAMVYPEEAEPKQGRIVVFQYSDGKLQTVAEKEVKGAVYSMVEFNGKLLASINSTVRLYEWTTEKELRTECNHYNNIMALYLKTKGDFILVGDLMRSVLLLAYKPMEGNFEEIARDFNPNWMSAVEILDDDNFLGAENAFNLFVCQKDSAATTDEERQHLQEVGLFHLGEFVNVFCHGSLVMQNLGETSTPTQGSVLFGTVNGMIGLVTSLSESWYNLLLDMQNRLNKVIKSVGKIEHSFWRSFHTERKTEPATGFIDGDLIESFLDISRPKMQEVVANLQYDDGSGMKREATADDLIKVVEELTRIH
T1 sequence (P48729 whole entry): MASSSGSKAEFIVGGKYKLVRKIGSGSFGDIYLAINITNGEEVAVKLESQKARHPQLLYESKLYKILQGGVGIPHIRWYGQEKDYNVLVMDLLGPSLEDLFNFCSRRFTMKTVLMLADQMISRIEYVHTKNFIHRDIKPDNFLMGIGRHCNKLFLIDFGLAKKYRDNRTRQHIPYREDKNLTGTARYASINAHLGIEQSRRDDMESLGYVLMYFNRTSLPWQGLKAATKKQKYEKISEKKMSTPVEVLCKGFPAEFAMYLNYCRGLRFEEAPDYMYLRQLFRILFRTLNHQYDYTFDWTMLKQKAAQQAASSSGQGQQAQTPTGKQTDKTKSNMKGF
T1 sequence (Q96SW2 whole entry): as the sequence (Q96SW2 whole entry) above
T1 sequence (Q16531 whole entry partner): as the sequence (Q16531 whole entry partner) above
T6 sequence (Q96SW2 whole entry): as the sequence (Q96SW2 whole entry) above
T5 sequence (P30291 whole entry): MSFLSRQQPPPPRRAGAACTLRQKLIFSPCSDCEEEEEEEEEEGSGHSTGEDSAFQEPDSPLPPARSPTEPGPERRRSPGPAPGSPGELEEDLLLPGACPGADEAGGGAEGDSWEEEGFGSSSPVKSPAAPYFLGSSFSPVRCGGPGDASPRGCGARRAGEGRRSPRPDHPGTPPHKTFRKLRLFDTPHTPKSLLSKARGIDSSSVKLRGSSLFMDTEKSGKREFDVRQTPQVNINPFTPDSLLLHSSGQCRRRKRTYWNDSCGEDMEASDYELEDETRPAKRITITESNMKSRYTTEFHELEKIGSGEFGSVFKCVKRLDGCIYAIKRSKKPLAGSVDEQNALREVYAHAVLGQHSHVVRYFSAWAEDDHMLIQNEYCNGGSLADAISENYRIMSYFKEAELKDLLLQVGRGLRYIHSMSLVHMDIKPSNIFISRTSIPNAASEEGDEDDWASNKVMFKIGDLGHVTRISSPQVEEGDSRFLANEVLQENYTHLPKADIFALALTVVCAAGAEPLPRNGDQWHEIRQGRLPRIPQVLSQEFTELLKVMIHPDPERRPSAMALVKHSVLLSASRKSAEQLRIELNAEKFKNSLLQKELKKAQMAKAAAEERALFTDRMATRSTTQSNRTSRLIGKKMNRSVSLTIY
T5 sequence (Q96SW2 whole entry): as the sequence (Q96SW2 whole entry) above
T5 sequence (Q16531 whole entry partner): as the sequence (Q16531 whole entry partner) above
T2 sequence (Q13422 whole entry): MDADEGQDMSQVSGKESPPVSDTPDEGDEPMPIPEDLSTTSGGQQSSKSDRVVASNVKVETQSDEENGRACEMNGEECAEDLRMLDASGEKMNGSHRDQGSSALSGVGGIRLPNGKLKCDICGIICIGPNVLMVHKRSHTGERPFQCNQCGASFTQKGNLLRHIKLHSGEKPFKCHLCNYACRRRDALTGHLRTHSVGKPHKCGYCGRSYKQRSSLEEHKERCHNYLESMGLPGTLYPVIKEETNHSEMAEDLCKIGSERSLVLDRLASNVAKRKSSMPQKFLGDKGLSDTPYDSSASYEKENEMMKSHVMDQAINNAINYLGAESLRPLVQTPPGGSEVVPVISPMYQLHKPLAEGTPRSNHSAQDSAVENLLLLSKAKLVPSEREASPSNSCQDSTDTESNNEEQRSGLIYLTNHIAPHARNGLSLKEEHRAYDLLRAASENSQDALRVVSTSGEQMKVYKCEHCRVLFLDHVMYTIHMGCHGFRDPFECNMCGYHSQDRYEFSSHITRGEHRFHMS
T2 sequence (Q96SW2 whole entry): as the sequence (Q96SW2 whole entry) above
T2 sequence (Q16531 whole entry partner): as the sequence (Q16531 whole entry partner) above
T4 sequence (Q9UKT9 whole entry): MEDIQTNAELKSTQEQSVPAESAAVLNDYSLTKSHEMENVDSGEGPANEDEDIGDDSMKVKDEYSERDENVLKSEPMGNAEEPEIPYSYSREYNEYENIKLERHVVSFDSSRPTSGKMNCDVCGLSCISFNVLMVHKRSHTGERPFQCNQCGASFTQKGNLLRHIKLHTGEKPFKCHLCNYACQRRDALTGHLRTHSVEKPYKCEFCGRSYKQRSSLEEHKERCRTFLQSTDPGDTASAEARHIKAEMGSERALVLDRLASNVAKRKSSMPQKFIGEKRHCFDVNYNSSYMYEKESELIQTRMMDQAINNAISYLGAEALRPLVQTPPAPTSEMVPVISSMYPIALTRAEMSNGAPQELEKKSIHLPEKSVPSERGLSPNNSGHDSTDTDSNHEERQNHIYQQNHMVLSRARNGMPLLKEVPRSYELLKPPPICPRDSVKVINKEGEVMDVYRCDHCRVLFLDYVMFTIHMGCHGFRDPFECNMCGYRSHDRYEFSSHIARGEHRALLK
T4 sequence (Q96SW2 whole entry): as the sequence (Q96SW2 whole entry) above
T4 sequence (Q16531 whole entry partner): as the sequence (Q16531 whole entry partner) above

For `O=C1CCC(N2Cc3c(CN4CC=C(c5c[nH]c6ncccc56)CC4)cccc3C2=S)C(=O)N1` (centres unmarked) [GT-08494, 3-(4-((4-(1H-pyrrolo[2,3-b]pyridin-3-yl)-3,6-dihydropyridin-1(2H)-yl)methyl)-1-thioxoisoindolin-2-yl)piperidine-2,6-dione], the “CK1α substrate protein remaining %” value at CK1α is “B (80%< substrate protein remaining %≤ 100%)”. For the same compound, at IKZF1, the “IKZF 1 substrate protein remaining %” value is on record as “A (0% ≤ substrate protein remaining % ≤ 80%)”. Further, on IKZF2, the “IKZF2 substrate protein remaining %” value is “A (0% ≤ substrate protein remaining % ≤ 80%)”. In addition, the “IKZF3 substrate protein remaining %” value on IKZF3 is “B (80%< substrate protein remaining %≤ 100%)”. Also, the “Wee1 substrate protein remaining %” value on WEE1 was “A (0% ≤ substrate protein remaining % ≤ 80%)”. Further, the “GSPT1 substrate protein remaining %” value in the experiment on GSPT1 is “B (80%< substrate protein remaining %≤ 100%)”. Moreover, in experiment [1], the inhibition at 0.5 µM was in the range of 60 to 80% and the inhibition at 2 µM is 80 to 100%.
As to `COc1ccc(N2CCN(Cc3cccc4c3CN(C3CCC(=O)NC3=O)C4=S)CC2)cc1` (centres unmarked) [GT-08495, 3-(4-((4-(4-methoxyphenyl)piperazin-1-yl)methyl)-1-thioxoisoindolin-2-yl)piperidine-2,6-dione], the “CK1α substrate protein remaining %” value on CK1α is listed as “B (80%< substrate protein remaining %≤ 100%)”. Besides, the “IKZF 1 substrate protein remaining %” value on IKZF1 is “A (0% ≤ substrate protein remaining % ≤ 80%)”. The “IKZF2 substrate protein remaining %” value at IKZF2 is on record as “A (0% ≤ substrate protein remaining % ≤ 80%)”. Moreover, the “IKZF3 substrate protein remaining %” value at IKZF3 is reported as “B (80%< substrate protein remaining %≤ 100%)”. For the same compound, the “Wee1 substrate protein remaining %” value at WEE1 is listed as “A (0% ≤ substrate protein remaining % ≤ 80%)”. Also, the “GSPT1 substrate protein remaining %” value in the experiment with GSPT1 is recorded as “A (0% ≤ substrate protein remaining % ≤ 80%)”. Also, in experiment [1], the inhibition at 0.5 µM fell in the range of 53 to 60% and the inhibition at 2 µM fell in the range of 60 to 80%.
Turning to `O=C1CCC(N2Cc3c(CN4CCN(c5ccc(Br)cc5)CC4)cccc3C2=S)C(=O)N1` (centres unmarked) [GT-08496, 3-(4-((4-(4-bromophenyl)piperazin-1-yl)methyl)-1-thioxoisoindolin-2-yl)piperidine-2,6-dione], at CK1α, the “CK1α substrate protein remaining %” value is recorded as “B (80%< substrate protein remaining %≤ 100%)”. The “IKZF 1 substrate protein remaining %” value on IKZF1 is reported as “A (0% ≤ substrate protein remaining % ≤ 80%)”. For the same compound, the “IKZF2 substrate protein remaining %” value at IKZF2 was “A (0% ≤ substrate protein remaining % ≤ 80%)”. Further, on IKZF3, the “IKZF3 substrate protein remaining %” value is “B (80%< substrate protein remaining %≤ 100%)”. The “Wee1 substrate protein remaining %” value on WEE1 was “A (0% ≤ substrate protein remaining % ≤ 80%)”. Also, the “GSPT1 substrate protein remaining %” value in the experiment on GSPT1 is on record as “A (0% ≤ substrate protein remaining % ≤ 80%)”. Also, in experiment [1], the inhibition at 0.5 µM is 40 to 53% and the inhibition at 2 µM lay in the range of 80 to 100%.
As to `Cc1cccc(N2CCN(Cc3cccc4c3CN(C3CCC(=O)NC3=O)C4=S)CC2)c1` (centres unmarked) [GT-08498, 3-(1-thioxo-4-((4-(m-tolyl)piperazin-1-yl)methyl)isoindolin-2-yl)piperidine-2,6-dione], the “CK1α substrate protein remaining %” value on CK1α is on record as “B (80%< substrate protein remaining %≤ 100%)”. Moreover, the “IKZF 1 substrate protein remaining %” value on IKZF1 was “B (80%< substrate protein remaining %≤ 100%)”. Moreover, the “IKZF2 substrate protein remaining %” value at IKZF2 is “A (0% ≤ substrate protein remaining % ≤ 80%)”. In addition, the “IKZF3 substrate protein remaining %” value at IKZF3 is listed as “B (80%< substrate protein remaining %≤ 100%)”. Besides, the “Wee1 substrate protein remaining %” value on WEE1 was “A (0% ≤ substrate protein remaining % ≤ 80%)”. Moreover, in the experiment on GSPT1, the “GSPT1 substrate protein remaining %” value is on record as “A (0% ≤ substrate protein remaining % ≤ 80%)”. Besides, in experiment [1], the inhibition at 0.5 µM fell in the range of 40 to 53% and the inhibition at 2 µM lay in the range of 60 to 80%.

The inhibition is the share of the control response that was lost under treatment.
